Legend:
[1] = biological target: T1, endothelin converting enzyme (ECE) (Oryctolagus cuniculus, UniProt A0A5F9CTJ8); test: In vitro ECE-inhibitory activity (human Big endothelin-induced contraction of rabbit left saphenous artery rings; inhibition of endothelin formation); type: cell-based, Male New Zealand rabbits; conditions: human Big endothelin 3×10^-8 M, compound in contact 30 minutes, 37° C.
T1 construct: The left saphenous artery was removed and cleaned of the surrounding tissue; from tissue; host or cells: left saphenous artery rings of male New Zealand rabbits, with endothelium
T1 sequence (A0A5F9CTJ8 1-783): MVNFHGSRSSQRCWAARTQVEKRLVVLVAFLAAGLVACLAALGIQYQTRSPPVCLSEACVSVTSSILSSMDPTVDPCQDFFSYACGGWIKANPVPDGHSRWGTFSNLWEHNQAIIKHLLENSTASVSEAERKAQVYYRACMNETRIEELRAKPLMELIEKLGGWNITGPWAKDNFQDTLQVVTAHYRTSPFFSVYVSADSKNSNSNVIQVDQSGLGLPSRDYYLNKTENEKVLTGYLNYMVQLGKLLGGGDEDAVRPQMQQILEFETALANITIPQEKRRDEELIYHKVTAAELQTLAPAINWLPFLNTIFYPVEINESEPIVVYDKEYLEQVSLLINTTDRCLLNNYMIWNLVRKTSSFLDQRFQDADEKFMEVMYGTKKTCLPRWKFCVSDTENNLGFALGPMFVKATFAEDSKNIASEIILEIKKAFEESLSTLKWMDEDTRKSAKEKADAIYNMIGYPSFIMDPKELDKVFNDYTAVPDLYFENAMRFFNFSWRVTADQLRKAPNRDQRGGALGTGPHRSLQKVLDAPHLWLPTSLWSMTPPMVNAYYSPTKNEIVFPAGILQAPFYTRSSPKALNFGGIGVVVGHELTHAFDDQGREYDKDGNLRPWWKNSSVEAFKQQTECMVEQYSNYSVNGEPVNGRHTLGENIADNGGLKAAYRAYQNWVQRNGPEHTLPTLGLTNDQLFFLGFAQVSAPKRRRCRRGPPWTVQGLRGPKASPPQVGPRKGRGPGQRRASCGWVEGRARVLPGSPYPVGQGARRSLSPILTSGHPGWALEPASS
Method: b) In vitro ECE-inhibitory activity
The ECE-inhibitory activity in vitro was evaluated according to the method reported in the literature by M. Auget et al., Eur. J. Pharmacol., 224, (1992), 101-102.
Male New Zealand rabbits (2.5-3 Kg) were sacrificed with an excess of pentobarbital and blood was drawn.
The left saphenous artery was removed and cleaned of the surrounding tissue, cut into 2-3 mm length rings and suspended in 25 ml baths containing Krebs-Henseleit solution at 37° C. and oxygenated with O2 containing 5% CO2. This solution was composed of (mM); NaCl, 118; KCl, 4.7; CaCl2, 2.5; KH2 PO4, 1.2; MgSO4, 1.2; NaHCO3, […]; glucose, 11. The preparations were kept under tension and readjusted to 1 g during the equilibration period (1 hour).
After said period, the preparations were exposed to a submaximal concentration of norepinephrine 1 μM which was repeated every 30 minutes until the response was stable. A concentration of acetylcholine 10 μM on the contraction of norepinephrine verified the presence of the endothelium.
After 30 minutes from the last contraction due to norepinephrine, a concentration of human Big endothelin 3×10^-8 M was administered. After reaching the plateau the preparations were washed for 30 minutes and a concentration 1 μM of the compound to be tested or of its vehicle was administered keeping it in contact for 30 minutes, after that a concentration of Big endothelin 3×10^-8 M was administered again. The percentage of ECE-inhibition was expressed as IC50 value (nM).

[2] = biological target: T2, neutral endopeptidase enzyme (NEP) (Rattus norvegicus, UniProt P07861); test: In vitro NEP-inhibitory activity (inhibition of formation of [^3 H]-Tyr-Gly-Gly from [^3 H][Leu^5 ]-enkephaline in kidney cortex membranes); type: biochemical, male Sprague-Dawley rats; conditions: rat kidney cortex membranes 5 μg/ml protein; [^3 H][Leu^5 ]-enkephaline 15 nM; Bestatin 1 mM; pH 7.4; 20 minutes at 30° C.
T2 construct: Membranes from kidney cortex were prepared according to the following procedure; from tissue; host or cells: kidney cortex membranes of male Sprague-Dawley rats
T2 sequence (P07861 1-750): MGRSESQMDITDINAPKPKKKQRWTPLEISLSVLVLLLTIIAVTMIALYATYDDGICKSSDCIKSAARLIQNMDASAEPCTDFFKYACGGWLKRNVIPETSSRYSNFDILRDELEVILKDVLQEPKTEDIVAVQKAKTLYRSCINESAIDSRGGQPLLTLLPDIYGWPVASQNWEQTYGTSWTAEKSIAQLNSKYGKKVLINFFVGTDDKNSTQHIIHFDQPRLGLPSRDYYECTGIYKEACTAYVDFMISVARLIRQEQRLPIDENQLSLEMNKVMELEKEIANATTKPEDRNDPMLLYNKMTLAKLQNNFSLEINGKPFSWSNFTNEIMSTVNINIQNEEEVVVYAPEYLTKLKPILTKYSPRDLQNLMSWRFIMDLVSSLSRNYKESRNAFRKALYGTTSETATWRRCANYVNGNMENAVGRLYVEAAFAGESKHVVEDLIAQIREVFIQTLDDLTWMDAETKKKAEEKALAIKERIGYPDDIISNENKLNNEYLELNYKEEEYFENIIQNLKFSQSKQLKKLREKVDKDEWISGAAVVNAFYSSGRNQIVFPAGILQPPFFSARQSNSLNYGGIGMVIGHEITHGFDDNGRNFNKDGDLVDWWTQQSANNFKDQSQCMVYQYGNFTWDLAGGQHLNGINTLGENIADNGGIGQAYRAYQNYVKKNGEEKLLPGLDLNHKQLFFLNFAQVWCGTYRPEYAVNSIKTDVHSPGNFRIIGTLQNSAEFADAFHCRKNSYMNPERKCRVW
Method: The NEP-inhibitory activity of the compounds of formula I was evaluated by means of in vitro tests as percentage of inhibition in the formation of [^3 H]-Tyr-Gly-Gly, a metabolite of [^3 H][Leu^5 ]-enkephaline(see example 26).
a) In vitro NEP-inhibitory activity
The NEP-inhibitory activity in vitro was evaluated according to the method reported in the literature by C. Llorens et al., Eur. J. Pharmacol., 69, (1981), 113-116.
Membranes from kidney cortex were prepared according to the following procedure.
By working at 0°-4° C. the kidneys were removed from killed male Sprague-Dawley rats weighing approximately 300 g.
Cortex was carefully dissected, finely minced and suspended in homogenization buffer (10 mM sodium phosphate pH 7.4 containing 1 mM MgCl2, 30 mM NaCl, 0.02% NaN3) 1:15 weight/volume.
The tissue was then homogenized for 30 seconds using an Ultra-Turrax homogenizer.
Approximately 10 ml of homogenate were layered over 10 ml of sucrose (41% weight/volume) and centrifuged at 31200 rpm for 30 minutes at 4° C. in a fixed angle rotor.
The membranes were collected from the buffer/sucrose interface, washed twice with 50 mM TRIS/HCl buffer (pH 7.4) and resuspended into the same buffer for storage.
The membranes were stored in small aliquots at -80° C. until use. The NEP-inhibitory activity was evaluated by using the following method.
Aliquots of the membrane suspension prepared as above described (concentration 5 μg/ml of proteins) were preincubated in the presence of an aminopeptidase inhibitor (Bestatin - 1 mM) for 10 minutes at 30° C.
[^3 H][Leu^5 ]-enkephaline (15 nM) and buffer TRIS/HCl pH 7.4 (50 mM) were added in order to obtain a final volume of 100 μl.
Incubation (20 minutes at 30° C.) was stopped by adding 0.1M HCl (100 μl).
The formation of the metabolite [^3 H]Tyr-Gly-Gly was quantified by chromatography on polystyrene columns (Porapak Q).
The percentage of inhibition of the metabolite formation in the membrane preparations treated with the compounds of formula I and the reference compounds in comparison to the untreated membrane preparations was expressed as IC50 value (nM).

SMILES	IC50 [1]	IC50 [2]
O=C(O)c1cc(NC(=O)C(CS)Cc2cccnc2)cs1 (stereo not drawn) [compound 6, N-(2-carboxy-4-thienyl)-3-mercapto-2-(3-pyridylmethyl)-propanamide]	1 nM	12.6 nM
O=C(O)c1cc(NC(=O)C(CS)Cc2ccccc2)cs1 (stereo not drawn) [compound 2, N-(2-carboxy-4-thienyl)-3-mercapto-2-benzyl-propanamide]	2 nM	1.5 nM
O=C(O)c1cc(NC(=O)C(CS)Cc2ccccc2)c[nH]1 (stereo not drawn) [compound 4, N-(2-carboxy-4-pyrrolyl)-3-mercapto-2-benzyl-propanamide]	2 nM	2.1 nM
O=C(O)c1cc(NC(=O)C(CS)Cc2ccc(Cl)cc2)c[nH]1 (stereo not drawn) [compound 9, N-(2-carboxy-4-pyrrolyl)-2-(4-chlorobenzyl)-3-mercapto-propanamide]	4 nM	2.7 nM
COc1cccc(CC(CS)C(=O)Nc2c[nH]c(C(=O)O)c2)c1 (stereo not drawn) [compound 13, N-(2-carboxy-4-pyrrolyl)-3-mercapto-2-(3-methoxybenzyl)-propanamide]	3 nM	5 nM

Results, then the compound that gave them:

IC50 [1]	IC50 [2]	SMILES
–	8.8 nM	O=C(O)Cc1csc(NC(=O)C(CS)Cc2ccccc2)n1 (stereo not drawn) [R-2, N-(4-carboxymethyl-2-thiazolyl)-3-mercapto-2-benzyl-propanamide, reference compound]
–	3.12 nM	O=C(O)c1cccc(NC(=O)C(CS)Cc2ccccc2)c1 (stereo not drawn) [R-1, N-(3-carboxyphenyl)-3-mercapto-2-benzyl-propanamide, reference compound]
